PubChem BioAssay (NCI)
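In this assay, cells in 96-well plates receive the compound at five concentrations for 48 hours. Endpoints are linearly interpolated between the surrounding concentrations. GI50 marks 50% less growth. TGI: total growth inhibition.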

Columns and labels:
Assay in all cases: growth of human tumour cells (NCI), 48 h
SW-620 colon = tested on: SW-620 colon
UACC-257 melanoma = tested on: UACC-257 melanoma
M19-MEL melanoma = tested on: M19-MEL melanoma
UACC-62 melanoma = tested on: UACC-62 melanoma
DLD-1 colon = tested on: DLD-1 colon
A498 renal = tested on: A498 renal
HCC-2998 colon = tested on: HCC-2998 colon
COLO 205 colon = tested on: COLO 205 colon
PC-3 prostate = tested on: PC-3 prostate
T-47D breast = tested on: T-47D breast

| Compound | TGI (SW-620 colon) [µM] | TGI (UACC-257 melanoma) [µM] | TGI (M19-MEL melanoma) [µM] | TGI (UACC-62 melanoma) [µM] | TGI (DLD-1 colon) [µM] | TGI (A498 renal) [µM] | TGI (HCC-2998 colon) [µM] | TGI (COLO 205 colon) [µM] | GI50 (SW-620 colon) [µM] | GI50 (PC-3 prostate) [µM] | TGI (PC-3 prostate) [µM] | GI50 (UACC-257 melanoma) [µM] | GI50 (T-47D breast) [µM] | TGI (T-47D breast) [µM] | GI50 (M19-MEL melanoma) [µM] | GI50 (UACC-62 melanoma) [µM] | GI50 (DLD-1 colon) [µM] | GI50 (A498 renal) [µM] | GI50 (HCC-2998 colon) [µM] | GI50 (COLO 205 colon) [µM] |
| --- | --- | --- | --- | --- | --- | --- | --- | --- | --- | --- | --- | --- | --- | --- | --- | --- | --- | --- | --- | --- |
| COC(c1cccc(C(O)(C(F)(F)F)C(F)(F)F)c1)(C(F)(F)F)C(F)(F)F | 32.9 | 42.3 | 30.5 | 28.2 | 34.6 | 34.4 | 21.7 | 33.5 | – | – | – | – | – | – | – | – | – | – | – | – |
| C/C(=N\NC(N)=S)c1cc(C)c(C)cc1C | > 100 | > 100 | 74.2 | > 100 | > 100 | > 100 | > 100 | > 100 | – | – | – | – | – | – | – | – | – | – | – | – |
| CCC[CH2][Sn]([CH2]CCC)([O]C(=O)c1cc(F)ccc1F)[O][Sn]([CH2]CCC)([CH2]CCC)[O]C(=O)c1cc(F)ccc1F | 0.274 | 1.21 | 0.459 | 0.665 | 0.974 | 0.631 | 1.92 | 1.2 | 0.116 | 0.759 | 2.01 | 0.255 | 0.0222 | 0.207 | 0.0854 | 0.206 | 0.206 | 0.238 | 0.669 | 0.413 |
